# Data taken from US4835161A, “Anti-histaminic compositions containing n-heterocyclyl-4-piperidinamines” (Janssen Pharmaceutica N.V., priority 1987, dated 1989).
# System: compound 48/80-induced lethality
# Test: Protection of rats from compound 48/80-induced lethality
# Format: in vivo, rat (male, inbred Wistar strain)
# Conditions: Rattus norvegicus; subcutaneous or oral; 1 h before compound 48/80 0.5 mg/kg i.v.; survival after 4 h; dose protecting 50% of animals; read-out: compound 48/80 lethality test in rats-ED50
# Protocol: Protection of rats from compound 48/80-induced lethality
# The protection from compound 48/80-induced lethal circulatory collapse appears to be a simple way of evaluating quantitatively the antihistaminic activity of test compounds. Male rats of an inbred Wistar strain, weighing 240-260 g were used in the experiment. After overnight starvation the rats were transferred to conditioned laboratories (temp.=21±1° C., relative humidity=65±5%). The rats were treated subcutaneously or orally with a test compound or with the solvent (NaCl solution, 0.9%). One hour after treatment there was injected intravenously compound 48/80, freshly dissolved in water, at a dose of 0.5 mg/kg (0.2 ml/100 g of body weight). […] Survival after 4 hours is therefore considered to be a safe criterion of a protective effect of drug administration. Said ED50 -values are the values in mg/kg body weight at which the tested compounds protect 50% of the tested animals against compound 48/80-induced lethality.
row,SMILES,ED50
1,"Cc1ccc(Cn2c(NC3CCNCC3)nc3cccnc32)o1 [compound 166, 3-[(5-methyl-2-furanyl)methyl]-N-(4-piperidinyl)-3H-imidazo[4,5-b]pyridin-2-amine]",0.04 mg/kg
2,"c1coc(Cn2c(NC3CCNCC3)nc3cccnc32)c1 [compound 140, 3-(2-furanylmethyl)-N-(4-piperidinyl)-3H-imidazo[4,5-b]pyridin-2-amine]",0.08 mg/kg
3,Fc1ccc(Cn2c(NC3CCNCC3)nc3cccnc32)cc1 [compound 123],0.08 mg/kg
4,Fc1ccc(Cn2c(NC3CCNCC3)nc3ncccc32)cc1 [compound 135],0.01 mg/kg
